What was measured:
[1] = test system: normal Wistar rats given a normal chow diet; assay: In vivo study: isosteviol treatment of normal Wistar rats on chow diet for 20 weeks (groups 1 and 2); details: for plasma HDL-cholesterol level increase, Δ in %: chow diet + isosteviol 0.03 g/kg/day
Description: (§1) 44 normal wistar rats at the age of about 6 weeks and a bodyweight of about 230 g, was randomised into 4 groups, with 11 in each group. Group 1 and 2 were fed with standard chow diet±Isosteviol (0.03 g/kg/day). Group 3 and 4 were diet induced to be hyperlipidemic by feeding with a high cholesterol containing diet (1.63% g cholesterol, 0.41% g Cholic acid, 16.3% g sunflower oil)±Isosteviol (0.03 g/kg/day). In the experiment was used Isosteviol with a purity of 99.4%. The treatment period was 20 weeks.
(§2) Blood samples were analyzed for hormones and lipids at the start and end of the study. The blood samples were taken from the tail or eye into glasses containing heparine/aprotinin. The samples were centrifuged and the plasma was frozen. The following were analyzed: total fasting plasma triglyceride level, total plasma cholesterol level, and plasma HDL-cholesterol level. Liver samples were analysed for mRNA expression of genes like SREBP-1, which have relation to the fat metabolism. The body weight was measured throughout the study period together with the food intake.
(§3) The fasting total plasma cholesterol level and the HDL-cholesterol level were measured by an enzymatic colorimetric test, the “cholesterol CHOD-PAP” method (cholesterol oxidase±phenol 4 amino phenazon), based on Trinder, using commercially available test kits (Roche Diagnostics, Basel, Germany), and the Cobas Mira instrument (Roche Diagnostics). The fasting plasma triglyceride level was measured by the enzymatic colorimetric GPO-PAP method (Glycerol phosphate oxidase±phenol 4 amino phenazon), based on Trinder, using commercially available test kits (Roche Diagnostics, Basel, Germany), and the Cobas Mira instrument (Roche Diagnostics).
(§4) Data are expressed as means±standard error of the mean (SEM). Statistical significance between two groups was evaluated using a two-tailed t test. A p value of less than 0.05 was considered statistically significant. For statistical analysis were used student t-tests and two way ANOVA-tests.
(§5) The setup differs from the setup in Example 1 by the use of non-diabetic rats versus the diabetic hyperlipidemic KKAY mouse model. In the present study the effect on HDL is investigated by comparing rats with a normal cholesterol level with rats having a diet induced elevated plasma cholesterol level.

[2] = test system: normal Wistar rats given a high fat diet; assay: In vivo study: isosteviol treatment of normal Wistar rats on high fat diet for 20 weeks (groups 3 and 4); details: for plasma HDL-cholesterol level increase, Δ in %: high fat diet + isosteviol 0.03 g/kg/day
Description: as §1, §2, §3, §4, §5

[3] = test system: KKAy mice; assay: In vivo study: isosteviol treatment of KKAy mice for 9 weeks (plasma lipids, body weight, food intake)
Procedure: Twenty male KKAy-mice (Clea Japan, Tokyo, Japan), all 5 week-old, weighing 22-25 g were randomized to 2 groups and treated for 9 weeks with; A: standard chow diet (control); B: standard chow diet+20 mg/kg BW of ISV. As a non-diabetic control group (C), ten normal C57BL-mice (Taconic, Ry, Denmark) were fed with standard chow diet (control to A), see FIG. 2 for outline of the study. The food intake was measured halfway through the study. The composition of the standard chow diet dry matter was: Protein 24%, carbohydrate 71%, and Lipids 5%. The drug isosteviol (ISV, ent-16-ketobeyeran-19-oic acid; Wako Pure Chemical Industries, Osaka, Japan) was incorporated in the mice food pellet and administered orally. The Danish Council for Animal experiments has approved the study.
Hormones and lipids were measured from blood sample at start and end of the treatment period. Blood sample was taken from the tail of the animals on chilled tubes containing heparin/aprotinin and centrifuged (4000 g, 60 seconds, 4° C.), and plasma was frozen for subsequent analysis of insulin, glucose, triglycerides, total cholesterol and HDL-cholesterol. Fasting blood glucose, as well as bodyweight (BW), was measured before and after intervention.
Plasma blood glucose was determined using the glucose oxidase method (GOD-PAP, Boehringer Mannheim, GmbH Germany). Insulin was determined by radioimmunoassay with a guinea pig antiporcine insulin antibody (PNILGP4, Novo Nordisk, Bagsvaerd, Denmark), and mono-[^125I]-(TyrA14) labeled human insulin (Novo Nordisk) as tracer and rat insulin (Novo Nordisk) as standard. We separated free and bound radioactivity using ethanol (See Heding L. G. Determination of total serum insulin (IRI) in insulin-treated diabetic patients; Diabetologia 1972; 8:260-266). Interassay and intra-assay variation was below 10%. […] The fasting plasma triglyceride level was measured by the enzymatic colorimetric GPO-PAP method (Glycerol phosphate oxidase±phenol 4 amino phenazon), based on Trinder, using commercially available test kits (Roche Diagnostics, Basel, Germany), and the Cobas Mira instrument (Roche Diagnostics). The fasting total plasma cholesterol level and the HDL-cholesterol level were measured by an enzymatic colorimetric test, the “cholesterol CHOD-PAP” method (cholesterol oxidase±phenol 4 amino phenazon), based on Trinder, using commercially available test kits (Roche Diagnostics, Basel, Germany), and the Cobas Mira instrument (Roche Diagnostics).
Data are expressed as means±standard error of the mean (SEM). Statistical significance between two groups was evaluated using a two-tailed t test. A p value of less than 0.05 was considered statistically significant. For plasma glucose calculations, analysis of covariance with adjustment for end body weight was performed.

[4] = test system: patients at high risk for coronary events; details: phase 3 clinical trial, active treatment group; trial terminated; cited from earlier work
[5] = Chow +Isosteviol, end (20 weeks)
[6] = Chow +Isosteviol, start of study
[7] = start to end (20 weeks), listed as Isosteviol
[8] = chow diet + isosteviol, start to end (20 weeks)
[9] = comparing group 2 with group 1 at the end of the study period
[10] = group 2, chow + isosteviol, start to end (20 weeks)
[11] = High fat +Isosteviol, end (20 weeks)
[12] = High fat +Isosteviol, start of study
[13] = High fat +Isosteviol, start to end
[14] = high fat diet + isosteviol, start to end (20 weeks)
[15] = KKAy mice, 20 mg/kg BW/day, after 9 weeks, n=10, in mM

Q: What does the source list for `C[C@@]12CC[C@@H]3[C@@](CC[C@H]4[C@@]3(C)CCC[C@@]4(C)C(=O)O)(CC1=O)C2` (single isomer, unassigned; ent-16) [isosteviol, ent-16-ketobeyeran-19-oic acid]?
A: HDL cholesterol, End [1, 5]: 1.42 ± 0.08 MM; Total Cholesterol, End [1, 5]: 1.67 ± 0.09 MM; HDL cholesterol, Start [1, 6]: 1.25 ± 0.06 MM; Total Cholesterol, Start [1, 6]: 1.61 ± 0.06 MM; HDL cholesterol Δ Abs ([1]; Chow +Isosteviol, start to end): 0.17 ± 0.04 mM; Total Cholesterol Δ Abs ([1]; Chow +Isosteviol, start to end): 0.07 ± 0.06 mM; plasma HDL-cholesterol level increase, Δ in % ([1]; start to end (20 weeks)): 14%; plasma HDL-cholesterol level increase, Δ in % [1, 7]: 14%; fasting total plasma cholesterol level increase, Δ in % [1, 8]: 4%; fasting total plasma cholesterol level Δ [1, 8]: 0.07 ± 0.06 mmol/L; fasting total plasma cholesterol level increase, Δ in % ([1]; chow diet + isosteviol, start to end (20 weeks), listed as Isosteviol): 4%; reduction in triglyceride concentration, Δchange in % [1, 9]: 61±18%; reduction in triglyceride concentration, Δchange in absolute values [1, 9]: -0.28 ± 0.10 mmol/L; body weight reduced by ([1]; group 2 (chow + isosteviol) compared to group 1 (chow control), 20 weeks): 16%; body weight, mean±SEM ([1]; group 2, chow + isosteviol, 10 weeks of treatment): 371 ± 10 g; body weight, mean±SEM ([1]; group 2, chow + isosteviol, after 20 weeks of treatment): 388 ± 13 g; change in the fasting plasma triglyceride concentration [1, 10]: -0.16 ± 0.09 mmol/L; decrease in the fasting plasma triglyceride concentration [1, 10]: 23%; deaths ([1]; group 2, chow diet + isosteviol, 20 weeks): No deaths; HDL cholesterol, End [2, 11]: 2.45 ± 0.25 MM; Total Cholesterol, End [2, 11]: 4.46 ± 0.37 MM; HDL cholesterol, Start [2, 12]: 1.34 ± 0.06 MM; Total Cholesterol, Start [2, 12]: 1.68 ± 0.1 MM; HDL cholesterol Δ Abs [2, 13]: 1.11 ± 0.26 mM; Total Cholesterol Δ Abs [2, 13]: 2.77 ± 0.38 mM; deaths ([2]; group 4, high fat diet + isosteviol, 20 weeks, two deaths in group 3 without isosteviol): No deaths; plasma HDL-cholesterol level increase, Δ in % ([2]; start to end (20 weeks)): 88%; plasma HDL-cholesterol level increase, Δ in % [2, 7]: 88%; fasting total plasma cholesterol level increase, Δ in % [2, 14]: 175%; fasting total plasma cholesterol level Δ [2, 14]: 2.77 ± 0.38 mmol/L; plasma HDL-cholesterol level Δ (SEM) [2, 14]: 1.11 ± 0.26 mmol/L; fasting total plasma cholesterol level increase, Δ in % ([2]; high fat diet + isosteviol, start to end (20 weeks), listed as Isosteviol): 175%; fasting plasma triglyceride (TG) level ([3]; ISV group, age 5 week (start of treatment)): 1.25 mmol/L; fasting plasma triglyceride (TG) level ([3]; ISV group, age 14 weeks (after 9 weeks treatment)): 2.02 mmol/L; TG level increase, age 14 weeks compared to age 5 week ([3]; ISV group, KKAy control increased 192%): 62%; fasting total plasma cholesterol level increased by ([3]; KKAy mice, 20 mg isosteviol/kg body weight/day in chow, after 9 weeks, vs KKAy control): 28%; fasting plasma HDL-cholesterol, mean±SEM [3, 15]: 2.999±0.091; fasting plasma total cholesterol, mean±SEM [3, 15]: 3.055±0.067; plasma HDL-cholesterol concentration increased by ([3]; KKAy mice, 20 mg/kg BW/day, after 9 weeks, vs KKAy control): 71%; plasma TG decreased compared to the KKAy group ([3]; after 9 weeks treatment): 48%; body weight ([3]; after 9 weeks treatment, KKAy control 41.6 g): 36.3 g; reduction in weight ([3]; end of the 9 week treatment period, vs KKAy control): 13%

Q: Which mortality [4] does the source give for `CCOC(=O)N1c2ccc(C(F)(F)F)cc2[C@@H](N(Cc2cc(C(F)(F)F)cc(C(F)(F)F)c2)C(=O)OC)C[C@H]1CC` [torcetrapib] here?
A: increased mortality

Source: patent publication US9314438B2, “Elevation of the plasma HDL-cholesterol level” (Aarhus Universitet, priority 2007, dated 2016)
